Test results from patent US20250163057A1, “DCN-1 MODULATING COMPOUNDS AND METHODS OF USE THEREOF” (Cellarity, Inc., priority 2023, published 2025).
Where two headings read alike, the source gives them in different places.

How the values were obtained:
[1] = molecular target: DCN1 (DCUND1) protein PONY domain (Homo sapiens (Human), UniProt Q96GG9); assay: TR-FRET assay, DCN1 binding with FAM-labeled probe
Summary of the method: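 Biotinylated DCN1 PONY domain, labeled with streptavidin-Tb, was competed against a FAM-labeled non-covalent DCN1 inhibitor probe in buffer with TritonX and 200 mM NaCl. Conditions were 5 nM DCN1 with 20 nM FAM-probe, or 0.31 nM DCN1 with 100 nM FAM-plus 800 nM unlabeled probe. The TR-FRET ratio was read at 1, 5 and 24 h (0.1% DMSO).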

[2] = tested on: Cullin-3 (CUL3) neddylation; assay: AlphaLISA assay for Cullin-3 (CUL3) neddylation in TF 1 cells; assay type: cell-based; conditions: Homo sapiens, 3 hours treatment
Summary of the method: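 Neddylated CUL3 was quantified by AlphaLISA in lysates of TF 1 cells exposed for 3 h to test compound in IMDM without supplements. Percent inhibition set between vehicle and 1 μM DI-1548 positive control; IC50 derived by Hill-equation fitting of dose-response curves.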

[3] = 24 hr after treatment with compound, read-out: TR FRET IC50 24 hr
[4] = TR FRET IC50 1 hr (nM), 1 hr after treatment with compound
[5] = read-out: TR FRET IC50 1 hr, 1 hr after treatment with compound

DCN1 (DCUND1) protein PONY domain, sequence (Q96GG9 60-248): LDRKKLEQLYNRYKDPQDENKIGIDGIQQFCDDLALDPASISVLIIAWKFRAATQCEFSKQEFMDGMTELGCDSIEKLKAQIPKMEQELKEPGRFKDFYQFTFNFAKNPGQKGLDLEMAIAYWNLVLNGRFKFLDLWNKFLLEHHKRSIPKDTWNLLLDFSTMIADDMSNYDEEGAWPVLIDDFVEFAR

| SMILES | IC50 [1, 3] [nM] | IC50 [1, 4] [nM] | IC50 ([2]; TF-1, 3 h) [nM] | IC50 [1, 5] [nM] | IC50 [2] [nM] |
| --- | --- | --- | --- | --- | --- |
| CCN1C(=O)[C@@H](NC(=O)c2cccc(C(F)(F)F)c2)[C@@H](c2ccc(F)cc2)c2c(CCN(C#N)CCO)nn(-c3ccccc3)c21 [Compound I-538] | ≤ 200 | 200 to 1000 | 100 to 1000 | – | – |
| CCN1C(=O)[C@@H](NC(=O)c2cccc(C(F)(F)F)c2)[C@@H](C2CC2)c2c(C(=O)N3C[C@@H](NC)C[C@H]3C#N)nn(C3CCOCC3)c21 [Compound I-503, N-((4S,5S)-3-((2S,4S)-2-cyano-4-(methylamino)pyrrolidine-1-carbonyl)-4-cyclopropyl-7-ethyl-6-oxo-1-(tetrahydro-2H-pyran-4-yl)-4,5,6,7-tetrahydro-1H-pyrazolo[3,4-b]pyridin-5-yl)-3-(trifluoromethyl)benzamide] | 200 to 1000 | 1000 to 3000 | > 1000 | – | – |
| CCN1C(=O)[C@@H](NC(=O)c2cccc(C(F)(F)F)c2)[C@@H](C2CC2)c2c(C(=O)N3CCOC[C@@H]3C#N)nn(C3CCOCC3)c21 [Compound I-551] | 200 to 1000 | 200 to 1000 | 100 to 1000 | – | – |
| CCN1C(=O)[C@@H](NC(=O)c2cccc(C(F)(F)F)c2)[C@@H](C2CC2)c2c(C(=O)N(C)C(C)C#N)nn(C3CC3)c21 (stereo partly drawn) [Compound I-492] | 200 to 1000 | 200 to 1000 | ≤ 100 | – | – |
| CCN1C(=O)[C@H](NC(=O)c2cccc(C(F)(F)F)c2)[C@@H](c2ccc(F)cc2)c2c(COCC#N)nn(-c3ccccc3)c21 [Compound I-522] | 1000 to 3000 | 1000 to 3000 | > 1000 | – | – |
| CCN1C(=O)[C@@H](NC(=O)c2cccc(C(F)(F)F)c2)[C@@H](C2CC2)c2c(C(=O)N3CCS(=O)(=O)C[C@H]3C#N)nn(-c3ccccc3)c21 [Compound I-659, N-((4S,5S)-3-((R)-3-cyano-1,1-dioxidothiomorpholine-4-carbonyl)-4-cyclopropyl-7-ethyl-6-oxo-1-phenyl-4,5,6,7-tetrahydro-1H-pyrazolo[3,4-b]pyridin-5-yl)-3-(trifluoromethyl)benzamide] | ≤ 200 | – | ≤ 100 | ≤ 200 | – |
| CCN1C(=O)[C@@H](NC(=O)c2cccc(C(F)(F)F)c2)[C@@H](C2CCCC2)c2c(C(=O)N(C)[C@@H](C)C#N)nn(C3CCOCC3)c21 [Compound I-559] | ≤ 200 | 200 to 1000 | ≤ 100 | – | – |
| CCN1C(=O)[C@@H](NC(=O)c2ccc3c(c2)COC3)[C@@H](C2CC2)c2c(C(=O)N3[C@H](C#N)C[C@H]4C[C@H]43)nn(C3CCOCC3)c21 [Compound I-600] | ≤ 200 | 200 to 1000 | ≤ 100 | – | – |
| CCN1C(=O)[C@@H](NC(=O)c2cccc(C(F)(F)F)c2)[C@@H](c2ccc(F)cn2)c2c([C@@H](C)NC#N)nn(-c3ccccc3)c21 [Compound I-439] | ≤ 200 | – | ≤ 100 | ≤ 200 | – |
| CCN1C(=O)[C@@H](NC(=O)c2cccc(C(F)(F)F)c2)[C@@H](C2CC2)c2c(C(=O)N3CC[C@H](NC)[C@H]3C#N)nn(C3CCOCC3)c21 (relative stereo) [Compound I-687, N-((4S,5S)-3-((2S*,3S*)-2-cyano-3-(methylamino)pyrrolidine-1-carbonyl)-4-cyclopropyl-7-ethyl-6-oxo-1-(tetrahydro-2H-pyran-4-yl)-4,5,6,7-tetrahydro-1H-pyrazolo[3,4-b]pyridin-5-yl)-3-(trifluoromethyl)benzamide] | ≤ 200 | ≤ 200 | ≤ 100 | – | – |
| CCN1C(=O)[C@@H](NC(=O)c2cccc(C(F)(F)F)c2)[C@@H](c2ccc(F)cc2)c2c([C@@H](CN(C)C)NC(N)=O)nn(-c3ccccc3)c21 (mixture of isomers) [Compound I-673] | 200 to 1000 | 200 to 1000 | > 1000 | – | – |
| CCN1C(=O)[C@@H](NC(=O)c2ccn(C(F)F)n2)[C@@H](C2CC2)c2c(C(=O)N3[C@H](C#N)C[C@H]4C[C@H]43)nn(C3CCOCC3)c21 [Compound I-432] | ≤ 200 | 200 to 1000 | 100 to 1000 | – | – |
| CCN1C(=O)[C@H](NC(=O)c2cccc(C(F)(F)F)c2)[C@H](c2ccc(F)cc2)c2c(C(=O)N3CC[C@H]3C#N)nn(-c3ccccc3)c21 [Compound I-535] | 1000 to 3000 | 1000 to 3000 | > 1000 | – | – |
| CCN1C(=O)[C@@H](NC(=O)c2cccc(C(F)(F)F)c2)[C@@H](C2CC2)c2c(C(=O)N3[C@@H]4C[C@@H]4C[C@@H]3C#N)nn(C3CCOCC3)c21 [Compound I-442] | 200 to 1000 | 1000 to 3000 | > 1000 | – | – |
| CCN1C(=O)[C@@H](NC(=O)c2cccc3ccoc23)[C@@H](C2CC2)c2c(C(=O)N3[C@H](C#N)C[C@H]4C[C@H]43)nn(C3CCOCC3)c21 [Compound I-707] | ≤ 200 | – | – | ≤ 200 | ≤ 100 |
